Data set [1] concerns the target T1, Bd-NDPSase (Bd3179) (Bdellovibrio bacteriovorus, UniProt Q6MIH8, E140Q).
T1 construct: gene nudF; gene cloned from HD100 chromosomal DNA into pET24a, expressed in E. coli BL21 (DE3); conventional purification, no tag mentioned; homodimer, residues numbered to 182
Nature of the data set: X-ray crystal structure, […] A (soak). It counts as binding. Particulars: crystals soaked in 5 mM ADPR for 2 days; catalytically inactive mutant; active site, no metal added.

The target of data set [2] is T1, Bd-NDPSase (Bd3179). Nature of the data set: X-ray crystal structure, […] A. Particulars: from crystals with 5 mM UDP-glucose (co-crystallization per methods, soak per results); active site, shifted toward phosphate position. It counts as binding.
Substrate in data set [3]: Nc1nc2c(ncn2[C@@H]2O[C@H](COP(=O)(O)OP(=O)(O)O[C@H]3O[C@H](CO)[C@@H](O)[C@H](O)[C@@H]3O)[C@@H](O)[C@H]2O)c(=O)[nH]1
Nature of the data set: phosphate release assay (Ames, coupled to calf intestinal phosphatase). Format: biochemical, Bdellovibrio bacteriovorus. Conditions: 5 mM MgCl2, 50 mM Tris-HCl pH 8.6, 1 mM EDTA. From the text: phosphate release assay (Ames, coupled to calf intestinal phosphatase) on Bd-[…]

T1 sequence (Q6MIH8 entry or part of it E140Q): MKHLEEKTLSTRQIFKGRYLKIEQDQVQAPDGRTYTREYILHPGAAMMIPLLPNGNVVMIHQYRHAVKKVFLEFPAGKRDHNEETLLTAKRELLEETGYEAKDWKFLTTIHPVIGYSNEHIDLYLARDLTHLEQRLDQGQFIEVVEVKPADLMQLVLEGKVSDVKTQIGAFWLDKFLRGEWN

For `Nc1ncnc2c1ncn2[C@@H]1O[C@H](COP(=O)(O)OP(=O)(O)OC[C@H]2OC(O)[C@H](O)[C@@H]2O)[C@@H](O)[C@H]1O` (stereo partly shown) [ADPR, ADP-ribose], the “X-ray crystal structure, 2.06 A (soak)” value on Bd-NDPSase (Bd3179) [1] is given as “E140Q Bd-NDPSase in complex with ADP-ribose (PDB ID 5C7T)”.
As to `OC[C@H]1OC(O)[C@H](O)[C@@H](O)[C@@H]1O` (stereo partly shown) [glucose], the “X-ray crystal structure, 1.80 A” value at Bd-NDPSase (Bd3179) [2] is given as “E140Q Bd-NDPSase in complex with glucose (PDB ID 5C8L)”.

B1: Bd-NDPSase (Bd3179) (Bdellovibrio bacteriovorus HD100) (protein)
chain: MKHLEEKTLSTRQIFKGRYLKIEQDQVQAPDGRTYTREYILHPGAAMMIPLLPNGNVVMIHQYRHAVKKVFLEFPAGKRDHNEETLLTAKRELLEETGYEAKDWKFLTTIHPVIGYSNEHIDLYLARDLTHLEQRLDQGEFIEVVEVKPADLMQLVLEGKVSDVKTQIGAFWLDKFLRGEWN
notes: gene cloned from HD100 chromosomal DNA into pET24a, expressed in E. coli BL21 (DE3); conventional purification, no tag mentioned; homodimer, residues numbered to 182
The Km is the substrate concentration at which the rate is half of its maximum. The kcat is the number of substrate molecules converted per active site and unit of time at saturation. Regarding B1, in data set [3], the Km was 300 µM and the kcat came to 5200 s⁻¹.
